The values below come from patent US20100087407A1, “USE OF AROMATASE INHIBITORS” (priority 2006, published 2010).

Series [1] relates to endometrium. To be noted: prior to hysteroscopic surgery; cited from earlier work.
Series [2] concerns endometrium. To be noted: small randomized study of progestogens; cited from earlier work.
The conditions of series [3]: postmenopausal breast cancer; cited from earlier work.
For series [4], the system named is endometrium. The series is described as follows: Examples 1-3: endometrial thinning with loading dose and maintenance dose. Format: in vivo, women. To be noted: loading dose on first day, then maintenance dose for 3-6 days, any time of cycle. The procedure: Five different groups of pre-menopausal women are treated based on where there are in the menstrual cycle. Starting days (i.e., the first day of dosing) for the five groups are on Cycle Days 2-5, 6-9, 10-13, 14-17, and 18-21 for Groups 1-5, respectively.
A thin endometrium is defined as having a double-wall thickness not greater than 4 mm on transvaginal ultrasound. […] The following table summarizes the dose day and evaluation times.

Turning to `C#C[C@]1(O)CC[C@H]2[C@@H]3CCC4=Cc5oncc5C[C@]4(C)[C@H]3CC[C@@]21C` [danazol], the endometrial thinning entry with endometrium [1] is reported as “satisfactory results”.

Turning to `CC(=O)O[C@]1(C(C)=O)CC[C@H]2[C@@H]3C[C@H](C)C4=CC(=O)CC[C@]4(C)[C@H]3CC[C@@]21C` [medroxyprogesterone acetate], in the series with endometrium [2], the “effect on endometrial thickness” value is “no effect”.

`CCC1(c2ccc(N)cc2)CCC(=O)NC1=O` (stereo not drawn) [aminoglutethimide]: the “patients stopping treatment because of side effects (lethargy, rashes, nausea, fever)” value in series [3] is recorded as 8-15%.

Consider `CC(=O)O[C@]1(C(C)=O)CC[C@H]2[C@@H]3C=C(Cl)C4=CC(=O)[C@@H]5C[C@@H]5[C@]4(C)[C@H]3CC[C@@]21C` [cyproterone acetate], for which the “effect on endometrial thickness” value in the series with endometrium [2] is reported as “significant reduction”.

Take `CC(C)(C#N)c1cc(Cn2cncn2)cc(C(C)(C)C#N)c1` [anastrozole]: in the series on endometrium [4], the “endometrial thinning prior to ablation” value is “able to maintain a thin endometrium or to induce adequate thinning”.

For the molecule `C#C[C@]1(O)CC[C@H]2[C@@H]3CCC4=CC(=O)CC[C@@H]4[C@H]3CC[C@@]21C` [norethisterone], in the series on endometrium [2], the “effect on endometrial thickness” value is “no effect”.
